Consider nine compounds from publication PMC10321319 (Nature, 2022).

In general, MIC refers to the lowest concentration that inhibits growth of the organism. Lower therefore signals greater potency.

In brackets after ≈: the same amount, converted by molar mass. Read-outs that look alike come from different tables or passages of the source. Positions of bridges follow the written chain, without caps; N, C: chain ends. Non-standard residues stand in square brackets, D forms with d. Residues, ends and D or L forms follow the SMILES beside them. *: point of attachment. Octanoyl(3-OH) = CCCCCC(O)CC(=O)*; Decanoyl = CCCCCCCCCC(=O)*; Nonanoyl = CCCCCCCCC(=O)*; X1 = CC[C@H](C)CCCCC(=O)*; dDab = NCC[C@@H](N)C(=O)O; Heptanoyl = CCCCCCC(=O)*; Octanoyl = CCCCCCCC(=O)*; Dab = NCC[C@H](N)C(=O)O

The test system of assay [1] is A. baumannii SM1536 (pMQ124xlab1-mcr-1). The assay can be described thus: MIC, microbial susceptibility assay. It is filed as cell-based, Acinetobacter baumannii. The settings on record: for Fold increase in MIC: A. baumannii SM1536 upon introduction of mcr-1.
In assay [2] the test system is A. baumannii 0301 (mcr-1). The assay can be described thus: MIC, microbial susceptibility assay. It is filed as cell-based, Acinetobacter baumannii. Conditions: A. baumannii 0301 upon introduction of mcr-1.
A further assay deals with E. faecium Com15. As to the kind of experiment: MIC, microbial susceptibility assay. The settings on record: n=2. It is filed as cell-based.
Another assay deals with S. aureus SH1000. The assay can be described thus: MIC, microbial susceptibility assay. The class given is cell-based. The settings on record: n=2.
Assay [3] deals with A. baumannii ATCC17978. The assay can be described thus: MIC, microbial susceptibility assay. The class given is cell-based, Acinetobacter baumannii. Conditions: n=2.
The next assay relates to P. aeruginosa PA01. The assay can be described thus: MIC, microbial susceptibility assay. It is filed as cell-based, Pseudomonas aeruginosa. The settings on record: n=2.
The subject of a further assay is E. cloacae 0150. As to the kind of experiment: MIC, microbial susceptibility assay. It is filed as cell-based, Enterobacter cloacae. The settings on record: n=2.
Assay [4] has as its system S. typhimurium 0635 (mcr-1). As to the kind of experiment: MIC, microbial susceptibility assay. The settings on record: S. typhimurium 0635, mcr-1 clinical isolate; n=2. It is filed as cell-based.
In assay [5] the test system is A. baumannii ATCC17978 (pMQ124xlab1-mcr-1). The assay can be described thus: MIC, microbial susceptibility assay. It is filed as cell-based, Acinetobacter baumannii. The settings on record: n=2.
The test system of assay [6] is pairs of colistin sensitive and resistant strains of K. pneumoniae and A. baumannii (mcr-1 plasmid). It is filed as cell-based.
A further assay deals with K. pneumoniae 10031. The settings on record: n=2.
In assay [7] the test system is K. pneumoniae 0497 (mcr-1). Conditions: n=2.
The test system of the next assay is K. pneumoniae ATCC13883. The settings on record: n=2.
The test system of assay [8] is K. pneumoniae ATCC13883 (pMQ124-mcr-1). Conditions: for Fold increase in MIC: K. pneumoniae 13883 upon introduction of mcr-1; for MIC: n=2.
The next assay deals with A. baumannii SM1536. Conditions: n=2.
The test system of assay [9] is E. cloacae ATCC13047 (ΔphoP/Q). The settings on record: n=2.
For assay [10], the system named is E. cloacae ATCC13047 (ΔphoP/Q+phoP/Q). The settings on record: for MIC: n=2; for Fold increase in MIC: E. cloacae ATCC13047 upon introduction of phoP/Q.
For another assay, the system named is P. vulgaris 49132. The settings on record: Proteus vulgaris, intrinsically colistin resistant (L-Ara4N).
Assay [11] relates to A. baumannii ATCC17978. As to the kind of experiment: CHIR-090 inhibition assay, growth curves. The class given is cell-based, Acinetobacter baumannii. The settings on record: 48 h growth curve.

Consider `CCCCCCCCCC(=O)N[C@@H](CCN)C(=O)N[C@H](C(=O)N[C@H](CO)C(=O)N[C@H]1CCNC(=O)[C@H](CC(C)C)NC(=O)[C@H](CCN)NC(=O)[C@H](CCN)NC(=O)[C@H]([C@@H](C)CC)NC(=O)[C@@H](CC(C)C)NC(=O)[C@H](CCN)NC1=O)[C@@H](C)O` [L4] (Decanoyl-[Dab]T[dS][Dab][Dab][dL]I[Dab][Dab]L; lactam 4-C; N-terminus assumed), for which the “Fold increase in MIC” value is 8 in assay [1] and 1 in assay [2].
In the same order, the values of `CCCCCCC(=O)N[C@@H](CCN)C(=O)N[C@H](C(=O)N[C@H](CO)C(=O)N[C@H]1CCNC(=O)[C@H](CC(C)C)NC(=O)[C@H](CCN)NC(=O)[C@H](CCN)NC(=O)[C@H]([C@@H](C)CC)NC(=O)[C@@H](CC(C)C)NC(=O)[C@H](CCN)NC1=O)[C@@H](C)O` [L1] (Heptanoyl-[Dab]T[dS][Dab][Dab][dL]I[Dab][Dab]L; lactam 4-C; N-terminus assumed) are 8 and 2.
With `CCCCCCCCC(=O)N[C@@H](CCN)C(=O)N[C@H](C(=O)N[C@H](CO)C(=O)N[C@H]1CCNC(=O)[C@H](CC(C)C)NC(=O)[C@H](CCN)NC(=O)[C@H](CCN)NC(=O)[C@H]([C@@H](C)CC)NC(=O)[C@@H](CC(C)C)NC(=O)[C@H](CCN)NC1=O)[C@@H](C)O` [L3] (Nonanoyl-[Dab]T[dS][Dab][Dab][dL]I[Dab][Dab]L; lactam 4-C; N-terminus assumed), the “Fold increase in MIC” value stood at 4 in assay [1] and 2 in assay [2].
In the same order, the values of `CCCCCCCC(=O)N[C@@H](CCN)C(=O)N[C@H](C(=O)N[C@H](CO)C(=O)N[C@H]1CCNC(=O)[C@H](CC(C)C)NC(=O)[C@H](CCN)NC(=O)[C@H](CCN)NC(=O)[C@H]([C@@H](C)CC)NC(=O)[C@@H](CC(C)C)NC(=O)[C@H](CCN)NC1=O)[C@@H](C)O` [L2] (Octanoyl-[Dab]T[dS][Dab][Dab][dL]I[Dab][Dab]L; lactam 4-C; N-terminus assumed) are 8 and 2.
As to Polymyxin B, the MIC in the assay on E. faecium Com15 was >128 µg/mL; against S. aureus SH1000 it was >128 µg/mL; in the assay with A. baumannii ATCC17978 [3] (A. baumannii 17978, ESKAPE panel), 0.5 µg/mL; in the assay on A. baumannii ATCC17978 [3] (A. baumannii ATCC17978, mcr-1 engineered pairs) it was 0.5 µg/mL; against P. aeruginosa PA01, 2 µg/mL; with E. cloacae 0150 it was 1 µg/mL. Also, the MIC is 16 µg/mL in [4]; 16 µg/mL in [5]; 128 µg/mL in [1] (A. baumannii SM1536 (pMQ124xlab1-mcr-1), n=2); 1 µg/mL against K. pneumoniae 10031; 32 µg/mL in [7] (K. pneumoniae 0497, mcr-1 clinical isolate); 1 µg/mL against K. pneumoniae ATCC13883. In addition, the MIC in [8] (K. pneumoniae ATCC13883 (pMQ124-mcr-1)) is 128 µg/mL; in the assay on A. baumannii SM1536, 1 µg/mL; in assay [9] (E. cloacae ATCC13047 (ΔphoP/Q)) it was 1 µg/mL; in [10] (E. cloacae ATCC13047 (ΔphoP/Q+phoP/Q)) it was 32 µg/mL; against P. vulgaris 49132, > 128 µg/mL. Also, the “increase in MIC upon mcr-1 expression” value in [6] is listed as ≥ 32 fold. Further, the “Fold increase in MIC” value is 128 in assay [8] and 32 in assay [10]. Also, the “susceptibility of strain” value in assay [10] (E. cloacae phoP/Q deletion rescued with phoP/Q plasmid) is on record as “resistant”.
As to `CC[C@H](C)CCCCC(=O)N[C@@H](CCN)C(=O)N[C@H](C(=O)N[C@H](CCN)C(=O)N[C@H]1CCNC(=O)[C@H](CC(C)C)NC(=O)[C@H](CCN)NC(=O)[C@H](CCN)NC(=O)[C@H]([C@@H](C)CC)NC(=O)[C@@H](CC(C)C)NC(=O)[C@H](CCN)NC1=O)[C@@H](C)O` [Macolacin-3Dab] (X1-[Dab]T[dDab][Dab][Dab][dL]I[Dab][Dab]L; lactam 4-C), the “Fold increase in MIC” value in assay [8] turned out to be 8; in [10], 4.
Turning to `CCCCCC(O)CC(=O)N[C@@H](CCN)C(=O)N[C@H](C(=O)N[C@H](CO)C(=O)N[C@H]1CCNC(=O)[C@H](CC(C)C)NC(=O)[C@H](CCN)NC(=O)[C@H](CCN)NC(=O)[C@H]([C@@H](C)CC)NC(=O)[C@@H](CC(C)C)NC(=O)[C@H](CCN)NC1=O)[C@@H](C)O` (stereo partly drawn) [L5] ({Octanoyl(3-OH)}-[Dab]T[dS][Dab][Dab][dL]I[Dab][Dab]L; lactam 4-C; N-terminus assumed), the “Fold increase in MIC” value in [1] was 4; in assay [2] it was 2.
As to `C[C@@H](O)[C@H](NC(=O)c1ccc(C#Cc2ccc(CN3CCOCC3)cc2)cc1)C(=O)NO` [CHIR-090], the “A. baumannii growth with CHIR-090 alone” value with A. baumannii ATCC17978 [11] is “does not inhibit A. baumannii growth”.
Consider `CC[C@H](C)CCCCC(=O)N[C@@H](CCN)C(=O)N[C@H](C(=O)N[C@H](CO)C(=O)N[C@H]1CCNC(=O)[C@H]([C@@H](C)O)NC(=O)[C@H](CCN)NC(=O)[C@H](CCN)NC(=O)[C@H]([C@@H](C)CC)NC(=O)[C@@H](CC(C)C)NC(=O)[C@H](CCN)NC1=O)[C@@H](C)O` [Macolacin-10Thr] (X1-[Dab]T[dS][Dab][Dab][dL]I[Dab][Dab]T; lactam 4-C), for which the MIC in assay [7] (K. pneumoniae 0497 (mcr-1), SAR table) came out at 8 µg/mL (≈ 6.92 µM); in [8] (K. pneumoniae 13883 (mcr-1), SAR table), 64 µg/mL (≈ 55.3 µM); in assay [9] (E. cloacae ATCC13047 (Δ phoP/Q), SAR table) it was 1 µg/mL (≈ 0.865 µM); in assay [10] (E. cloacae ATCC13047 (Δ phoP/Q+phoP/Q), SAR table), 16 µg/mL (≈ 13.8 µM). Also, the “Fold increase in MIC” value in [8] turned out to be 64; in assay [10], 16.
